Data set [1] concerns the target T1, Lysine-specific demethylase 4A (Homo sapiens, UniProt O75164).
T1 sequence (O75164 whole entry): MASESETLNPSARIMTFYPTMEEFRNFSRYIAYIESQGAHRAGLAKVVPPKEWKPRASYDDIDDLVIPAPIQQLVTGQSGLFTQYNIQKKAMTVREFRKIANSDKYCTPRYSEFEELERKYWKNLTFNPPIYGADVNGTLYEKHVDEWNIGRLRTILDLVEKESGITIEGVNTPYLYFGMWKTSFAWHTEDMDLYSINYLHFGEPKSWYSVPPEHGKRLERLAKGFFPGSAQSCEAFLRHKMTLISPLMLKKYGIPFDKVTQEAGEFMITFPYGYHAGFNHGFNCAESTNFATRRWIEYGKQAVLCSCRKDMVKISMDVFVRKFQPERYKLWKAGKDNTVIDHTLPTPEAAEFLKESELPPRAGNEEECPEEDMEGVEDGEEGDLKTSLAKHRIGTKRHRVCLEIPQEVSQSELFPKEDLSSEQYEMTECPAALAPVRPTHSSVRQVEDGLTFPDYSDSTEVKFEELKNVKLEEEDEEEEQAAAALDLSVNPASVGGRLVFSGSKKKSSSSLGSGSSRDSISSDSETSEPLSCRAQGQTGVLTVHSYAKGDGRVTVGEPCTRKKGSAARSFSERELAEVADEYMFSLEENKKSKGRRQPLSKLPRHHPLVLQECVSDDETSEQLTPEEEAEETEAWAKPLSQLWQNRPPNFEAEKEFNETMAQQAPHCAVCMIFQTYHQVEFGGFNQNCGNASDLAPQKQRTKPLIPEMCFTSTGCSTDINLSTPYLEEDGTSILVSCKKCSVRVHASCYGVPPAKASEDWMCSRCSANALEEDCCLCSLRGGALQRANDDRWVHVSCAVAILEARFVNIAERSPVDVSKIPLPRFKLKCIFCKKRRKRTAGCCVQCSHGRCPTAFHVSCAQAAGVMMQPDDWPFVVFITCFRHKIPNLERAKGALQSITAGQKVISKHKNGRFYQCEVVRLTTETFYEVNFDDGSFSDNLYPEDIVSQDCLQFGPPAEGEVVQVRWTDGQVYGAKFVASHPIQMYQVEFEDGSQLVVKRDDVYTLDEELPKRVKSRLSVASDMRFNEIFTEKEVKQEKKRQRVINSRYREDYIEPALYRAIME
Briefly: Binding affinity to biotinylated-KDM4A (unknown origin) at 300 nM by bio-layer interferometric method. As to conditions: read-out: Kd(app). In general terms: In BLI a coated tip is dipped into the sample, and binding shifts an interference pattern.

Data set [2] can be described thus: Drug uptake in human MCF7 cells assessed as cell area stained at 10 uM after 3 hrs by Hoechst 33342 staining based confocal microscopic analysis. Conditions: mcf7, 3 h. The data set is classed as ADME.
Data set [3] concerns the target T1, Lysine-specific demethylase 4A. Put plainly: Inhibition of KDM4A (unknown origin) expressed in Escherichia coli using biotinylated peptide as substrate pretreated for 15 mins followed by substrate addition by Alphascreen assay.
Data set [4] deals with T2, Lysine-specific demethylase 4C (Homo sapiens, UniProt Q9H3R0).
T2 sequence (Q9H3R0 whole entry): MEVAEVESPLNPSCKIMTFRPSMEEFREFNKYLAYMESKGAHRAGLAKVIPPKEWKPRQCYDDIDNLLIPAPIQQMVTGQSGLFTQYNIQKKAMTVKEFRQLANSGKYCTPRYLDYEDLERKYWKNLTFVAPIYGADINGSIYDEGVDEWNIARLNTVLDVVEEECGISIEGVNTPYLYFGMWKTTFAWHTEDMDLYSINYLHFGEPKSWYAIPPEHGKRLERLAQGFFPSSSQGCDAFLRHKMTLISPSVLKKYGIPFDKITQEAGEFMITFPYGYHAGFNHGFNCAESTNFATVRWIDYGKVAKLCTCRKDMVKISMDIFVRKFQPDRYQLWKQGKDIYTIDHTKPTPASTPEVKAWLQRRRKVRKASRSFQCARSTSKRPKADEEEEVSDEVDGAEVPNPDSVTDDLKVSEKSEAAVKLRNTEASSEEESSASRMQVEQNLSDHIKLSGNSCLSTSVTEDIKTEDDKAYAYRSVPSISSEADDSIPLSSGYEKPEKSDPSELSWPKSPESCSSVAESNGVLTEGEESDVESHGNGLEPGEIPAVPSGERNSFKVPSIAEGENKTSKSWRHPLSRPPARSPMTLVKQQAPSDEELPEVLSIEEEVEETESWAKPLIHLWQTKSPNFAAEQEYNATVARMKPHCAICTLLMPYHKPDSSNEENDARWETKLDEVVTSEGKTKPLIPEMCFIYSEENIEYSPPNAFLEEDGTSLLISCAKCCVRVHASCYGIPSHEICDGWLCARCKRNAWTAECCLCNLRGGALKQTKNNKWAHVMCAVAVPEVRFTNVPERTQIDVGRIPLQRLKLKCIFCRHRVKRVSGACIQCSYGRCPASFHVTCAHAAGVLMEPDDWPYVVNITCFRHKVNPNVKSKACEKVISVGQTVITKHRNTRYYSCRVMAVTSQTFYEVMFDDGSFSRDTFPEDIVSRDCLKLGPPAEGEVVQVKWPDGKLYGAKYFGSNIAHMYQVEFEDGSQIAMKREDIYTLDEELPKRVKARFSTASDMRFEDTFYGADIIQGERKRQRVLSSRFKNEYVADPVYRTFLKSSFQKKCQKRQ
Put plainly: Inhibition of KDM4C (unknown origin) expressed in Escherichia coli using biotinylated peptide as substrate pretreated for 15 mins followed by substrate addition by Alphascreen assay. For orientation: Alpha assays give light when donor and acceptor beads are brought close together.

In data set [5] the target is T1, Lysine-specific demethylase 4A. Put plainly: Inhibition of full length FLAG-tagged KDM4A (unknown origin) expressed in human HeLa cells assessed as increase in H3K9me3 levels after 24 hrs by DAPI staining based immunofluorescence assay. Type of data set: cell-based.

Molecules are shown by their SMILES. Where a SMILES comes first, the peptide text is derived from it. Bridges are numbered along the chain shown (N, C = ends). [ ]: non-standard residue; d: D form. NMeI = CC[C@H](C)[C@H](NC)C(=O)O; NMeC = CN[C@@H](CS)C(=O)O

The IC50 is the concentration that gives 50% inhibition. On to `CC[C@H](C)[C@@H]1NC(=O)[C@H](Cc2c[nH]c3ccccc23)NC(=O)CNC(=O)[C@H](CO)NC(=O)[C@H](CCCNC(=N)N)NC(=O)[C@H](C(C)C)NC(=O)[C@H](C(C)C)NC(=O)[C@H](CCCNC(=N)N)NC(=O)[C@H]([C@@H](C)CC)NC(=O)[C@@H](Cc2ccc(O)cc2)NC(=O)CSC[C@@H](C(N)=O)NC(=O)[C@H](Cc2c[nH]c3ccccc23)NC1=O`, for which the Kd in data set [1] was 3.7 nM. Moreover, the Drug uptake in data set [2] was found to be 2.9%. Further, the IC50 in data set [3] was 43 nM; in data set [4], 22 nM.
As usually defined, the EC50 is the concentration at which the effect is half-maximal. In the case of `CC[C@H](C)[C@@H]1NC(=O)[C@H](CCCNC(=N)N)NC(=O)[C@H]([C@@H](C)CC)NC(=O)[C@@H](Cc2ccc(O)cc2)NC(=O)CSC[C@@H](C(N)=O)NC(=O)[C@H](Cc2c[nH]c3ccccc23)NC(=O)[C@H](CC(C)C)NC(=O)[C@H](Cc2c[nH]c3ccccc23)NC(=O)[C@@H](C)NC(=O)[C@H](CO)NC(=O)[C@H](CCCNC(=N)N)NC(=O)[C@H](CCCNC(=N)N)NC1=O`, the EC50 in data set [5] (hela) was above 50 µM. The Kd in data set [1] worked out at 3.1 nM. The Drug uptake in data set [2] amounted to 92.7%. The figures for the IC50 in data set [3] and in data set [4] were 15 nM and 38 nM, respectively.
For `CC[C@H](C)[C@@H]1NC(=O)[C@H](CCCNC(=N)N)NC(=O)[C@@H]2CCCN2C(=O)[C@@H](Cc2ccc(O)cc2)NC(=O)CSC[C@@H](C(N)=O)NC(=O)[C@H](Cc2c[nH]c3ccccc23)NC(=O)[C@H](CCCNC(=N)N)NC(=O)[C@H]([C@@H](C)CC)NC(=O)[C@@H](C)NC(=O)[C@H](CO)NC(=O)[C@H](CCCNC(=N)N)NC(=O)[C@H](CCCNC(=N)N)NC1=O` the same measures were above 50 µM, 14 nM, 97.1%, 208 nM and 173 nM.
Turning to `CC[C@H](C)[C@@H]1NC(=O)[C@H](CCCNC(=N)N)NC(=O)[C@H]([C@@H](C)CC)NC(=O)[C@H](Cc2ccc(O)cc2)NC(=O)CSC[C@@H](C(N)=O)N(C)C(=O)[C@H](Cc2c[nH]c3ccccc23)NC(=O)[C@H](CC(C)C)NC(=O)[C@H](Cc2c[nH]c3ccccc23)NC(=O)CNC(=O)[C@H](CO)NC(=O)[C@H](CCCNC(=N)N)NC(=O)[C@H](CCCNC(=N)N)NC1=O` ({CH2CO}-YIRIRRSGWLW[NMeC]-NH2; thioether N-12), the concentration giving a half-maximal response (EC50) in data set [5] is above 50 µM. The Kd in data set [1] came to 8.3 nM. For the same compound, the Drug uptake in data set [2] came to 18%. Moreover, the IC50 in data set [3] came to 34 nM; in data set [4] it was 53 nM.
As to `CC[C@H](C)[C@@H]1NC(=O)[C@H](CCCNC(=N)N)NC(=O)[C@H]([C@@H](C)CC)NC(=O)[C@H](Cc2ccc(O)cc2)NC(=O)CSC[C@@H](C(N)=O)NC(=O)[C@H](Cc2c[nH]c3ccccc23)NC(=O)[C@H](C(C)C)NC(=O)[C@H](Cc2c[nH]c3ccccc23)NC(=O)CNC(=O)[C@H](CO)NC(=O)[C@H](CCCNC(=N)N)NC(=O)[C@H](CO)NC1=O` ({CH2CO}-YIRISRSGWVWC-NH2; thioether N-12), the Kd in data set [1] came out at 16 nM. Moreover, the Drug uptake in data set [2] was 12.1%. In addition, the IC50 in data set [3] was found to be 31 nM; in data set [4], 23 nM.
For `CC[C@H](C)[C@@H]1NC(=O)[C@H](CC(C)C)NC(=O)[C@H](Cc2ccc(O)cc2)NC(=O)CSC[C@@H](C(N)=O)NC(=O)[C@H](Cc2c[nH]c3ccccc23)NC(=O)[C@H](C(C)C)NC(=O)[C@H](CC(C)C)NC(=O)CNC(=O)[C@H](CO)NC(=O)[C@H](CCCNC(=N)N)NC(=O)[C@H](CCCNC(=N)N)NC(=O)[C@H](C(C)C)NC1=O` ({CH2CO}-YLIVRRSGLVWC-NH2; thioether N-12) the same measures were 173 nM, 3.4%, 81 nM and 151 nM.
For `CC[C@H](C)[C@@H]1NC(=O)[C@H](CC(C)C)NC(=O)CNC(=O)[C@H](CO)NC(=O)[C@H](CCCNC(=N)N)NC(=O)[C@H](C(C)C)NC(=O)[C@H](C(C)C)NC(=O)[C@H](CCCCN)NC(=O)[C@@H]2CCCN2C(=O)[C@H](Cc2ccc(O)cc2)NC(=O)CSC[C@@H](C(N)=O)NC(=O)[C@H](Cc2c[nH]c3ccccc23)NC1=O` ({CH2CO}-YPKVVRSGLIWC-NH2; thioether N-12) the same measures were 49 nM, 1.7%, 82 nM and 154 nM.
In the case of `CC[C@H](C)[C@@H]1NC(=O)CNC(=O)[C@H](CO)NC(=O)[C@H](CCCNC(=N)N)NC(=O)[C@H](CCCNC(=N)N)NC(=O)[C@H]([C@@H](C)CC)NC(=O)[C@H](CCCNC(=N)N)NC(=O)[C@@H]2CCCN2C(=O)[C@H](Cc2ccc(O)cc2)NC(=O)CSC[C@@H](C(N)=O)N(C)C(=O)[C@H](Cc2c[nH]c3ccccc23)NC(=O)[C@H](CCCNC(=N)N)NC1=O` ({CH2CO}-YPRIRRSGIRW[NMeC]-NH2; thioether N-12), the EC50 in data set [5] is above 50 µM. For the same compound, the Kd in data set [1] worked out at 9 nM. For the same compound, the Drug uptake in data set [2] came to 28.2%. In addition, the IC50 in data set [3] came out at 373 nM; in data set [4], 164 nM.
As to `CC[C@H](C)[C@@H]1NC(=O)[C@H](Cc2c[nH]c3ccccc23)NC(=O)CNC(=O)[C@H](CO)NC(=O)[C@H](CCCNC(=N)N)NC(=O)[C@H](CCCCN)NC(=O)[C@H]([C@@H](C)CC)NC(=O)[C@H](CO)NC(=O)[C@@H]2CCCN2C(=O)[C@H](Cc2ccc(O)cc2)NC(=O)CSC[C@@H](C(N)=O)NC(=O)[C@H](Cc2c[nH]c3ccccc23)NC1=O` ({CH2CO}-YPSIKRSGWIWC-NH2; thioether N-12), the Kd in data set [1] amounted to 21 nM. Also, the Drug uptake in data set [2] was 0.8%. Besides, the IC50 is 41 nM in data set [3] and 55 nM in data set [4].
For `CC[C@H](C)[C@@H]1NC(=O)[C@H](CCCNC(=N)N)NC(=O)[C@H]([C@@H](C)CC)N(C)C(=O)[C@H](Cc2ccc(O)cc2)NC(=O)CSC[C@@H](C(N)=O)NC(=O)[C@H](Cc2c[nH]c3ccccc23)NC(=O)[C@H](CC(C)C)NC(=O)[C@H](Cc2c[nH]c3ccccc23)NC(=O)CNC(=O)[C@H](CO)NC(=O)[C@H](CCCNC(=N)N)NC(=O)[C@H](CCCNC(=N)N)NC1=O` ({CH2CO}-Y[NMeI]RIRRSGWLWC-NH2; thioether N-12), the EC50 in data set [5] is above 50 µM. Also, the Kd in data set [1] was determined as 14 nM. Moreover, the Drug uptake in data set [2] is given as 55.6%. Further, the IC50 in data set [3] stood at 11 nM; in data set [4], 12 nM.

(Values after ChEMBL document CHEMBL4184250, “Structure-activity studies of a macrocyclic peptide inhibitor of histone lysine demethylase 4A” (Bioorg Med Chem, 2018).)
